The source of these data is ChEMBL document CHEMBL1157053, “Pharmacophore-based 3D QSAR studies on a series of high affinity 5-HT1A receptor ligands” (Eur J Med Chem, 2010).

The target of the test is T1, 5-hydroxytryptamine receptor 1A (Homo sapiens, UniProt P08908).
T1 sequence (P08908 whole entry): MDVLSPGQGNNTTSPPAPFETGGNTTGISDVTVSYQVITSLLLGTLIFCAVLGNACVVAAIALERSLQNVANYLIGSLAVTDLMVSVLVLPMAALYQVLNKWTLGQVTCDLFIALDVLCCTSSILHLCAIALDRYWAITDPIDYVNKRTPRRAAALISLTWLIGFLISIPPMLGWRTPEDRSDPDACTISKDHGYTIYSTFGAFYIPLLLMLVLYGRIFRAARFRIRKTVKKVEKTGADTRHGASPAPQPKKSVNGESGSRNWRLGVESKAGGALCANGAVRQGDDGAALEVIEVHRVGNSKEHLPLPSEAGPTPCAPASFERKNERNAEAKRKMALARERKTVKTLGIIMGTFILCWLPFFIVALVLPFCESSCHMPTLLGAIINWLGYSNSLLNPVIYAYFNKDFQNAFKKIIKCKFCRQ
The test can be described thus: Antagonist activity at 5HT1A. Type of test: functional.

In turn, `OC(CCN1CCN(c2cccc3cccnc23)CC1)c1csc2ccc(F)cc12` (centres undefined) had a Ki of 0.00269 µM.

Regarding `COc1ccccc1N1CCN(CCC(=O)c2ccsc2)CC1`, the affinity, expressed as Ki, was 0.0603 µM. Compared with the last compound, the Ki is about 22-fold higher.

`Oc1ccccc1N1CCN(CCC(O)c2ccc3ccccc3c2)CC1` (centres undefined) gave an inhibition constant (Ki) of 0.191 µM. This Ki lies about 3.2-fold higher than the previous one.

Compound `OC(CCN1CCN(c2cccc3c2OCCO3)CC1)c1csc2ccc(F)cc12` (centres undefined) gave a Ki of 0.00603 µM.

`COc1ccc(OC(CCN2CCN(c3ccccc3OC)CC2)c2ccccc2)cc1` (centres undefined) showed a Ki of 0.0891 µM. Against the preceding compound, the Ki is about 15-fold higher.

As for `OC(CCN1CCN(c2cccc3cccnc23)CC1)c1csc2ccccc12` (centres undefined), the affinity corresponds to a Ki of 0.55 µM.

Compound `CC1CN(CCC(O)c2csc3ccc(F)cc23)CCN1c1cccc2c1OCO2` (centres undefined) gave an inhibitory constant (Ki) of 0.00933 µM.

`COc1ccccc1N1CCN(CCC(Oc2cccc3ccccc23)c2cccs2)CC1` (centres undefined) had a Ki of 0.219 µM.

As to `Cc1ccc2cccc(N3CCN(CCC(O)c4csc5ccc(F)cc45)CC3)c2n1` (centres undefined), the affinity corresponds to a Ki of 0.00251 µM. Against the preceding compound, the Ki is about 87-fold lower.

As to `OC(CCN1CCN(c2cccc3ccccc23)CC1)c1csc2ccccc12` (centres undefined), the inhibitory constant (Ki) was 0.0661 µM.

`OC(CCN1CCN(c2cccc3c2OCCCO3)CC1)c1csc2ccc(F)cc12` (centres undefined): the inhibitory constant (Ki) is 0.00302 µM.

Compound `OC(CCN1CCN(c2ccccc2Cl)CC1)c1ccsc1` (centres undefined) had a Ki of 5.01 µM.

In turn, `FC(F)(F)c1ccc(OC(CCN2CCN(c3ccc(Cl)cc3)CC2)c2ccccc2)cc1` (centres undefined) gave an inhibition constant (Ki) of 5.01 µM.

For the compound `OC(CCN1CCN(c2ccc3sccc3c2)CC1)c1csc2ccccc12` (centres undefined), the affinity corresponds to a Ki of 1.58 µM.

In turn, `COc1ccccc1N1CCN(CCC(O)c2csc(C)c2)CC1` (centres undefined) had a Ki of 0.372 µM.

Consider `Cc1cc(C(=O)CCN2CCN(c3cccc4ccccc34)CC2)c(C)s1`, for which the affinity corresponds to a Ki of 5.01 µM.

For `O=C(CCN1CCN(c2ccccc2O)CC1)c1ccc2ccccc2c1`, the Ki is 1 µM.

For `OC(CCN1CCN(c2ccc(F)cc2)CC1)c1ccccc1` (centres undefined), the affinity, expressed as Ki, was 0.145 µM.

In turn, `OC(CCN1CCN(c2ncccn2)CC1)c1ccccc1` (centres undefined) had a Ki of 0.372 µM.

Consider `COc1ccccc1N1CCN(CCC(=O)c2cc(C)sc2C)CC1`, for which the Ki was 5.01 µM. Compared with the last compound, the Ki is about 13-fold higher.

Turning to `COc1ccccc1N1CCN(CCC(O)c2ccc([N+](=O)[O-])cc2)CC1` (centres undefined), the inhibition constant (Ki) is 0.01 µM.

Regarding `Cc1ccc2cccc(N3CCN(CCC(O)c4csc5ccccc45)CC3)c2n1` (centres undefined), the affinity corresponds to a Ki of 0.0102 µM. This Ki and that of the compound before are within 1.5-fold of each other.

As to `Cc1cc(C(O)CCN2CCN(c3ccccc3O)CC2)c(C)s1` (centres undefined), the affinity corresponds to a Ki of 0.0891 µM.

As to `OC(CCN1CCN(c2cccc3ncccc23)CC1)c1csc2ccccc12` (centres undefined), the Ki was 0.0372 µM.

Compound `OC(CCN1CCN(c2cccc3c2OCCCO3)CC1)c1csc2ccccc12` (centres undefined) gave an inhibition constant (Ki) of 0.00191 µM.

Compound `COc1cc(F)ccc1N1CCN(CCC(=O)c2cc(C)sc2C)CC1` had a Ki of 0.0129 µM.

Turning to `OC(CCN1CCN(c2cnc3ccccc3c2)CC1)c1csc2ccccc12` (centres undefined), the Ki was 1 µM.

As to `OC(CCN1CCN(c2ccc3ncccc3c2)CC1)c1csc2ccccc12` (centres undefined), affinity was put at a Ki of 0.55 µM.

`COc1ccccc1N1CCN(CCC(Oc2cccc3ccccc23)c2ccsc2)CC1` (centres undefined) had an inhibitory constant (Ki) of 0.182 µM. Compared with the last compound, the Ki is about 3-fold lower.

With `COc1ccccc1N1CCN(CCC(Oc2ccc3c(c2)OCO3)c2ccccc2)CC1` (centres undefined), the inhibition constant (Ki) was 0.02 µM. Compared with the last compound, the Ki is about 9.1-fold lower.

Turning to `COc1ccccc1N1CCN(CCC(=O)c2ccc([N+](=O)[O-])cc2)CC1`, the Ki was 0.0501 µM.

`COc1ccccc1N1CCN(CC/C(=N\O)c2csc3ccccc23)CC1` showed an inhibition constant (Ki) of 0.794 µM.

Compound `COc1ccccc1N1CCN(CCC(Oc2ccc3c(c2)OCO3)c2ccsc2)CC1` (centres undefined) gave a Ki of 0.055 µM.

For the compound `COc1ccccc1N1CCN(CCC(O)c2ccc(-c3ccccc3)cc2)CC1` (centres undefined), the inhibition constant Ki was 0.851 µM.

The Ki is a measure of affinity in units of concentration, obtained from inhibition or displacement. High values mean a looser hold on the target, low ones a stronger hold on the target.
